Reference: patent US11541055B2, “Inhibitors of human immunodeficiency virus replication” (ViiV Healthcare UK (No. 5) LIMITED, priority 2018, dated 2023)

Key:
[1] = tested on: recombinant NL4-3 virus (Renilla luciferase) in MT-2 cells; experiment: HIV cell culture assay (antiviral activity, luciferase readout); assay type: cell-based; conditions: Renilla, NL43
Procedure, shortened: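 MT-2 cells were infected with recombinant NL4-3 virus carrying Renilla luciferase in place of part of nef. Cells were cultured 4–5 days with serially diluted compound, and luciferase was measured with a live-cell substrate. EC50 was calculated from the median effect equation.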

[2] = Compound cytotoxicity, XTT-based colorimetric assay; assay type: cell-based; conditions: human; uninfected MT2 cells, day 4, XTT
Procedure, shortened: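 Run under the antiviral-assay protocol but without virus. Viability was read on day 4 and CC50 values were derived from the readout.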

Row | Compound | EC50 [1] [nM] | CC50 at 4 days [2] [nM]
1 | Cc1ncc(F)c(-c2ccc3c(=O)n(-c4ccc(Cl)c5c(NS(C)(=O)=O)nn(C)c45)c([C@H](Cc4cc(F)cc(F)c4)NC(=O)Cn4nc(C(F)F)c5c4C(F)(F)[C@@H]4C[C@H]54)nc3c2)n1 (atropisomer, axis not shown; (P)) [Example 64, N—((S)-1-((3P)-3-(4-chloro-1-methyl-3-(methylsulfonamido)-1H-indazol-7-yl)-7-(5-fluoro-2-methylpyrimidin-4-yl)-4-oxo-3,4-dihydroquinazolin-2-yl)-2-(3,5-difluorophenyl)ethyl)-2-((3bS,4aR)-3-(difluoromethyl)-5,5-difluoro-3b,4,4a,5-tetrahydro-1H-cyclopropa[3,4]cyclopenta[1,2-c]pyrazol-1-yl)acetamide] | 0.093 | > 500
2 | Cc1nc(-c2ccc3c(=O)n(-c4ccc(Cl)c5c(NS(C)(=O)=O)nn(C)c45)c([C@H](Cc4cc(F)cc(F)c4)NC(=O)Cn4nc(C(F)F)c5c4C(F)(F)[C@@H]4C[C@H]54)nc3c2)cc(C(C)C)n1 (atropisomer, axis not shown; (P)) [Example 66, N—((S)-1-((3P)-3-(4-chloro-1-methyl-3-(methylsulfonamido)-1H-indazol-7-yl)-7-(6-isopropyl-2-methylpyrimidin-4-yl)-4-oxo-3,4-dihydroquinazolin-2-yl)-2-(3,5-difluorophenyl)ethyl)-2-((3bS,4aR)-3-(difluoromethyl)-5,5-difluoro-3b,4,4a,5-tetrahydro-1H-cyclopropa[3,4]cyclopenta[1,2-c]pyrazol-1-yl)acetamide] | 0.15 | > 500
3 | CC(C)c1nccc(-c2ccc3c(=O)n(-c4ccc(Cl)c5c(NS(C)(=O)=O)nn(C)c45)c([C@H](Cc4cc(F)cc(F)c4)NC(=O)Cn4nc(C(F)F)c5c4C(F)(F)[C@@H]4C[C@H]54)nc3c2)n1 (atropisomer, axis not shown; (P)) [Example 67, N—((S)-1-((3P)-3-(4-chloro-1-methyl-3-(methylsulfonamido)-1H-indazol-7-yl)-7-(2-isopropylpyrimidin-4-yl)-4-oxo-3,4-dihydroquinazolin-2-yl)-2-(3,5-difluorophenyl)ethyl)-2-((3bS,4aR)-3-(difluoromethyl)-5,5-difluoro-3b,4,4a,5-tetrahydro-1H-cyclopropa[3,4]cyclopenta[1,2-c]pyrazol-1-yl)acetamide] | 0.15 | > 500
4 | CCc1cc(-c2ccc3c(=O)n(-c4ccc(Cl)c5c(NS(C)(=O)=O)nn(C)c45)c([C@H](Cc4cc(F)cc(F)c4)NC(=O)Cn4nc(C(F)F)c5c4C(F)(F)[C@@H]4C[C@H]54)nc3c2)nc(CC)n1 (atropisomer, axis not shown; (P)) [Example 68, N—((S)-1-((3P)-3-(4-chloro-1-methyl-3-(methylsulfonamido)-1H-indazol-7-yl)-7-(2,6-diethylpyrimidin-4-yl)-4-oxo-3,4-dihydroquinazolin-2-yl)-2-(3,5-difluorophenyl)ethyl)-2-((3bS,4aR)-3-(difluoromethyl)-5,5-difluoro-3b,4,4a,5-tetrahydro-1H-cyclopropa[3,4]cyclopenta[1,2-c]pyrazol-1-yl)acetamide] | 0.18 | > 500
5 | CCOc1cc(-c2ccc3c(=O)n(-c4ccc(Cl)c5c(NS(C)(=O)=O)nn(C)c45)c([C@H](Cc4cc(F)cc(F)c4)NC(=O)Cn4nc(C(F)F)c5c4C(F)(F)[C@@H]4C[C@H]54)nc3c2)nc(C)n1 (atropisomer, axis not shown; (P)) [Example 69, N—((S)-1-((3P)-3-(4-chloro-1-methyl-3-(methylsulfonamido)-1H-indazol-7-yl)-7-(6-ethoxy-2-methylpyrimidin-4-yl)-4-oxo-3,4-dihydroquinazolin-2-yl)-2-(3,5-difluorophenyl)ethyl)-2-((3bS,4aR)-3-(difluoromethyl)-5,5-difluoro-3b,4,4a,5-tetrahydro-1H-cyclopropa[3,4]cyclopenta[1,2-c]pyrazol-1-yl)acetamide] | 0.43 | > 500
6 | Cn1nc(NS(C)(=O)=O)c2c(Cl)ccc(-n3c([C@H](Cc4cc(F)cc(F)c4)NC(=O)Cn4nc(C(F)F)c5c4C(F)(F)[C@@H]4C[C@H]54)nc4cc(-c5ccnc(C(C)(C)C)n5)ccc4c3=O)c21 (atropisomer, axis not shown; (P)) [Example 72, N—((S)-1-(7-(2-(tert-butyl)pyrimidin-4-yl)-(3P)-3-(4-chloro-1-methyl-3-(methylsulfonamido)-1H-indazol-7-yl)-4-oxo-3,4-dihydroquinazolin-2-yl)-2-(3,5-difluorophenyl)ethyl)-2-((3bS,4aR)-3-(difluoromethyl)-5,5-difluoro-3b,4,4a,5-tetrahydro-1H-cyclopropa[3,4]cyclopenta[1,2-c]pyrazol-1-yl)acetamide] | 0.43 | > 500
7 | Cn1nc(NS(C)(=O)=O)c2c(Cl)ccc(-n3c([C@H](Cc4cc(F)cc(F)c4)NC(=O)Cn4nc(C(F)F)c5c4C(F)(F)[C@@H]4C[C@H]54)nc4cc(-c5ccnc(C6CCCC6)n5)ccc4c3=O)c21 (atropisomer, axis not shown; (P)) [Example 73, N—((S)-1-((3P)-3-(4-chloro-1-methyl-3-(methylsulfonamido)-1H-indazol-7-yl)-7-(2-cyclopentylpyrimidin-4-yl)-4-oxo-3,4-dihydroquinazolin-2-yl)-2-(3,5-difluorophenyl)ethyl)-2-((3bS,4aR)-3-(difluoromethyl)-5,5-difluoro-3b,4,4a,5-tetrahydro-1H-cyclopropa[3,4]cyclopenta[1,2-c]pyrazol-1-yl)acetamide] | 0.96 | > 500
8 | COCc1nccc(-c2ccc3c(=O)n(-c4ccc(Cl)c5c(NS(C)(=O)=O)nn(C)c45)c([C@H](Cc4cc(F)cc(F)c4)NC(=O)Cn4nc(C(F)F)c5c4C(F)(F)[C@@H]4C[C@H]54)nc3c2)n1 (atropisomer, axis not shown; (P)) [Example 74, N—((S)-1-((3P)-3-(4-chloro-1-methyl-3-(methylsulfonamido)-1H-indazol-7-yl)-7-(2-(methoxymethyl)pyrimidin-4-yl)-4-oxo-3,4-dihydroquinazolin-2-yl)-2-(3,5-difluorophenyl)ethyl)-2-((3bS,4aR)-3-(difluoromethyl)-5,5-difluoro-3b,4,4a,5-tetrahydro-1H-cyclopropa[3,4]cyclopenta[1,2-c]pyrazol-1-yl)acetamide] | 0.079 | > 500
9 | COCc1nc(C)cc(-c2ccc3c(=O)n(-c4ccc(Cl)c5c(NS(C)(=O)=O)nn(C)c45)c([C@H](Cc4cc(F)cc(F)c4)NC(=O)Cn4nc(C(F)F)c5c4C(F)(F)[C@@H]4C[C@H]54)nc3c2)n1 (atropisomer, axis not shown; (P)) [Example 75, N—((S)-1-((3P)-3-(4-chloro-1-methyl-3-(methylsulfonamido)-1H-indazol-7-yl)-7-(2-(methoxymethyl)-6-methylpyrimidin-4-yl)-4-oxo-3,4-dihydroquinazolin-2-yl)-2-(3,5-difluorophenyl)ethyl)-2-((3bS,4aR)-3-(difluoromethyl)-5,5-difluoro-3b,4,4a,5-tetrahydro-1H-cyclopropa[3,4]cyclopenta[1,2-c]pyrazol-1-yl)acetamide] | 0.077 | > 500
10 | Cn1nc(NS(C)(=O)=O)c2c(Cl)ccc(-n3c([C@H](Cc4cc(F)cc(F)c4)NC(=O)Cn4nc(C(F)F)c5c4C(F)(F)[C@@H]4C[C@H]54)nc4cc(-c5ccnc(C6CCC6)n5)ccc4c3=O)c21 (atropisomer, axis not shown; (P)) [Example 76, N—((S)-1-((3P)-3-(4-chloro-1-methyl-3-(methylsulfonamido)-1H-indazol-7-yl)-7-(2-cyclobutylpyrimidin-4-yl)-4-oxo-3,4-dihydroquinazolin-2-yl)-2-(3,5-difluorophenyl)ethyl)-2-((3bS,4aR)-3-(difluoromethyl)-5,5-difluoro-3b,4,4a,5-tetrahydro-1H-cyclopropa[3,4]cyclopenta[1,2-c]pyrazol-1-yl)acetamide] | 0.18 | > 500
11 | Cc1ncc(C)c(-c2ccc3c(=O)n(-c4ccc(Cl)c5c(NS(C)(=O)=O)nn(C)c45)c([C@H](Cc4cc(F)cc(F)c4)NC(=O)Cn4nc(C(F)F)c5c4C(F)(F)[C@@H]4C[C@H]54)nc3c2)n1 (atropisomer, axis not shown; (P)) [Example 77, N—((S)-1-((3P)-3-(4-chloro-1-methyl-3-(methylsulfonamido)-1H-indazol-7-yl)-7-(2,5-dimethylpyrimidin-4-yl)-4-oxo-3,4-dihydroquinazolin-2-yl)-2-(3,5-difluorophenyl)ethyl)-2-((3bS,4aR)-3-(difluoromethyl)-5,5-difluoro-3b,4,4a,5-tetrahydro-1H-cyclopropa[3,4]cyclopenta[1,2-c]pyrazol-1-yl)acetamide] | 0.071 | > 500
12 | Cn1nc(NS(C)(=O)=O)c2c(Cl)ccc(-n3c([C@H](Cc4cc(F)cc(F)c4)NC(=O)Cn4nc(C(F)F)c5c4C(F)(F)[C@@H]4C[C@H]54)nc4cc(-c5ccnc(C6CC6)n5)ccc4c3=O)c21 (atropisomer, axis not shown; (P)) [Example 78, N—((S)-1-((3P)-3-(4-chloro-1-methyl-3-(methylsulfonamido)-1H-indazol-7-yl)-7-(2-cyclopropylpyrimidin-4-yl)-4-oxo-3,4-dihydroquinazolin-2-yl)-2-(3,5-difluorophenyl)ethyl)-2-((3bS,4aR)-3-(difluoromethyl)-5,5-difluoro-3b,4,4a,5-tetrahydro-1H-cyclopropa[3,4]cyclopenta[1,2-c]pyrazol-1-yl)acetamide] | 0.16 | > 500
